Measurements from article PMC10330904 (Toxicology and applied pharmacology, 2023).

Experiments:
[1] = system: Acetylcholinesterase (AChE) (biochemical); details: cited from earlier work; for IC50: read-out: tox21-ache-p5 (IC50)
[2] = target: Acetylcholinesterase (AChE) (with human microsomes); details: read-out: tox21-ms-ache-p2 (IC50); cited from earlier work
[3] = system: cell viability counter screens

SMILES | tox21-ache-p5 (IC50) [1] | IC50 [2] [nM] | IC50 [1] [µM] | viability assay hit rate [3] [%]
CCOP(=S)(Oc1ccc([N+](=O)[O-])cc1)c1ccccc1 (centres unmarked) | inactive | 2000 | – | –
CCOP(=S)(OCC)SCn1nnc2ccccc2c1=O [Azinphos-ethyl] | – | 250 | 35.5 | –
CCOP(=S)(OCC)Oc1nc(Cl)c(Cl)cc1Cl [Chlorpyrifos] | – | 250 | 79.4 | –
CCOP(=S)(OCC)Oc1ccc2c(C)c(Cl)c(=O)oc2c1 [Coumaphos] | – | 1070 | 53.7 | –
CCOP(=S)(OCC)SC(CCl)N1C(=O)c2ccccc2C1=O (centres unmarked) [Dialifor] | – | 1410 | 63.1 | –
COP(N)(=S)Oc1ccccc1C(=O)OC(C)C (centres unmarked) [Isocarbophos] | inactive | 2820 | – | –
CCOP(=S)(OCC)Oc1ccc([N+](=O)[O-])cc1 [Parathion] | – | 740 | 24.6 | –
CCOP(=S)(OCC)SCn1c(=O)oc2cc(Cl)ccc21 [Phosalone] | inactive | 5890 | – | –
CCOP(=S)(OCC)O/N=C(\C#N)c1ccccc1 [Phoxim] | – | 1660 | 56.2 | –
CCOP(=S)(OCC)Oc1cnc2ccccc2n1 [Quinalphos] | – | 1000 | 79.4 | –
CCOP(=S)(OCC)SCSC(C)(C)C [Terbufos] | inactive | 47900 | – | –
Oc1c(Cl)cc(Cl)cc1Sc1cc(Cl)cc(Cl)c1O [bithionol] | – | – | – | 98.78
[H]/N=C(\N/C(=N/[H])NCCCCCCNC(=N)NC(=N)Nc1ccc(Cl)cc1)Nc1ccc(Cl)cc1 [chlorhexidine] | – | – | – | 97.56
O=C1C(Cl)=C(Cl)C(=O)c2ccccc21 [dichlone] | – | – | – | 97.56
Oc1c(Cl)cc(Cl)c(Cl)c1Cc1c(O)c(Cl)cc(Cl)c1Cl [hexachlorophene] | – | – | – | 97.56
CC1=CC(=O)c2ccccc2C1=O [menadione] | – | – | – | 97.56
Cc1cc(C(C)(C)CC(C)(C)C)ccc1OCCOCC[N+](C)(C)Cc1ccccc1.[Cl-] [methylbenzethonium chloride] | – | – | – | 97.56
Oc1cc(Cl)ccc1Oc1ccc(Cl)cc1Cl [triclosan] | – | – | – | 97.56
